In ChEMBL document CHEMBL5257115, “Synthesis of novel ciprofloxacin-avibactam conjugates for the development of second-generation non-β-lactam-β-lactamase inhibitors” (Bioorg Med Chem Lett, 2023):
≈ marks a conversion by molar mass, not a printed value. Calls of active or inactive are those of the source. The rule behind the calls is not given here.

Assays:
Staphylococcus aureus [1] = experiment: Antibacterial activity against multidrug resistant Staphylococcus aureus ATCC 25923 assessed as bacterial growth inhibition; type: functional
Klebsiella pneumoniae [2] = experiment: Antibacterial activity against multidrug resistant Klebsiella pneumoniae ATCC 2146 assessed as bacterial growth inhibition; type: functional
Acinetobacter baumannii = experiment: Antibacterial activity against multidrug resistant Acinetobacter baumannii ATCC 2803 assessed as bacterial growth inhibition; type: functional
Escherichia coli [3] = experiment: Antibacterial activity against multidrug resistant Escherichia coli ATCC 25922 assessed as bacterial growth inhibition; type: functional
Escherichia coli [4] = experiment: Antibacterial activity against multidrug resistant Escherichia coli ATCC 2774 assessed as bacterial growth inhibition; type: functional
Klebsiella pneumoniae [5] = experiment: Antibacterial activity against multidrug resistant Klebsiella pneumoniae ATCC 2782 assessed as bacterial growth inhibition; type: functional
Staphylococcus aureus [6] = experiment: Antibacterial activity against multidrug resistant Staphylococcus aureus ATCC 43300 assessed as bacterial growth inhibition; type: functional
[7] = molecular target: T1, Metallo-beta-lactamase type 2 (Bacillus cereus, UniProt P14488); experiment: Inhibition of Bacillus cereus beta-lactamase II
T1 sequence (P14488 whole entry): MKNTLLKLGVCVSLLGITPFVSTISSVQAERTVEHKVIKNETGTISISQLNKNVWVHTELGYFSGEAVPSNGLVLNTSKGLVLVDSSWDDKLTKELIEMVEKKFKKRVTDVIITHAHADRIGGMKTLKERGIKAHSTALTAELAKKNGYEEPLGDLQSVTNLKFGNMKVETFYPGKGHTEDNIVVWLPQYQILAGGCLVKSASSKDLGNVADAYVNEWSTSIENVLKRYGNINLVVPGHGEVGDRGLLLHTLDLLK

[8] = Hemolytic activity in human RBC assessed as hemolysis at 512 ug/ml; type: toxicity, cell-based, Erythrocyte; settings: red blood cells (RBC), at 512 µg/mL, read-out: Activity
Escherichia coli [9] = experiment: Synergistic antibacterial activity against multidrug resistant Escherichia coli ATCC 25922 assessed as bacterial growth inhibition in presence of ceftazidime; type: functional, organism-based
Escherichia coli [10] = experiment: Synergistic antibacterial activity against multidrug resistant Escherichia coli ATCC 2774 assessed as bacterial growth inhibition in presence of ceftazidime; type: functional, organism-based
Klebsiella pneumoniae [11] = experiment: Synergistic antibacterial activity against multidrug resistant Klebsiella pneumoniae ATCC 2782 assessed as bacterial growth inhibition in presence of ceftazidime; type: functional, organism-based
Klebsiella pneumoniae [12] = experiment: Synergistic antibacterial activity against multidrug resistant Klebsiella pneumoniae ATCC 2146 assessed as bacterial growth inhibition in presence of ceftazidime; type: functional, organism-based

| Structure (SMILES) | MIC (Staphylococcus aureus [1]) [µg/mL] | MIC (Klebsiella pneumoniae [2]) [µg/mL] | MIC (Acinetobacter baumannii) [µg/mL] | MIC (Escherichia coli [3]) [µg/mL] | MIC (Escherichia coli [4]) [µg/mL] | MIC (Klebsiella pneumoniae [5]) [µg/mL] | MIC (Staphylococcus aureus [6]) [µg/mL] | IC50 [7] [nM] | hemolysis at 512 ug/ml [8] [%] | Activity (Escherichia coli [9]) | Activity (Escherichia coli [10]) | Activity (Klebsiella pneumoniae [11]) | Activity (Klebsiella pneumoniae [12]) |
| --- | --- | --- | --- | --- | --- | --- | --- | --- | --- | --- | --- | --- | --- |
| O=C(NNC(=O)[C@H](Cc1ccccc1)NC(=O)[C@@H]1CC[C@@H]2CN1C(=O)N2OS(=O)(=O)O)c1cn(C2CC2)c2cc(N3CCNCC3)c(F)cc2c1=O | 8 (≈ 10.8 µM) | > 128 | > 128 | 16 (≈ 21.6 µM) | > 128 | > 128 | > 128 |  |  |  |  |  |  |
| O=C(CCCCCNC(=O)[C@@H]1CC[C@@H]2CN1C(=O)N2OS(=O)(=O)O)NNC(=O)c1cn(C2CC2)c2cc(N3CCNCC3)c(F)cc2c1=O | > 64 | > 64 | > 64 | 4 (≈ 5.66 µM) | > 32 | > 32 | > 64 |  |  |  |  |  |  |
| O=C(CNC(=O)[C@@H]1CC[C@@H]2CN1C(=O)N2OS(=O)(=O)O)NNC(=O)c1cn(C2CC2)c2cc(N3CCNCC3)c(F)cc2c1=O | > 256 | > 128 | > 128 | 8 (≈ 12.3 µM) | > 128 | > 128 | > 128 | 226 | 5.74 | Active | Active | Active | Active |
| CC[C@H](C)C(NC(=O)[C@@H]1CC[C@@H]2CN1C(=O)N2OS(=O)(=O)O)C(=O)NNC(=O)c1cn(C2CC2)c2cc(N3CCNCC3)c(F)cc2c1=O (stereo partly drawn) | > 256 | > 128 | > 128 | 32 (≈ 45.3 µM) | > 128 | > 128 | > 128 |  |  |  |  |  |  |
| NC(=O)[C@@H]1CC[C@@H]2CN1C(=O)N2OS(=O)(=O)O [AVIBACTAM] | 256 (≈ 965 µM) | 8 (≈ 30.2 µM) | > 128 | 8 (≈ 30.2 µM) | 8 (≈ 30.2 µM) | 32 (≈ 121 µM) | > 128 | 141 | 3.87 | Active | Active | Active | Active |
| O=C(NNC(=O)[C@@H]1CC[C@@H]2CN1C(=O)N2OS(=O)(=O)O)c1cn(C2CC2)c2cc(N3CCNCC3)c(F)cc2c1=O | 8 (≈ 13.5 µM) | > 128 | > 128 | 16 (≈ 27 µM) | > 128 | > 128 | 128 (≈ 216 µM) | 1.69 | 4.27 | Active | Active | Active | Active |
| C[C@H](NC(=O)[C@@H]1CC[C@@H]2CN1C(=O)N2OS(=O)(=O)O)C(=O)NNC(=O)c1cn(C2CC2)c2cc(N3CCNCC3)c(F)cc2c1=O | 16 (≈ 24.1 µM) | > 128 | > 128 | 1 (≈ 1.5 µM) | > 128 | > 128 | 32 (≈ 48.1 µM) |  |  |  |  |  |  |
| COc1ccc(C[C@H](NC(=O)[C@@H]2CC[C@@H]3CN2C(=O)N3OS(=O)(=O)O)C(=O)NNC(=O)c2cn(C3CC3)c3cc(N4CCNCC4)c(F)cc3c2=O)cc1OC | > 64 | > 64 | > 64 | 32 (≈ 40 µM) | > 64 | > 64 | > 64 |  |  |  |  |  |  |
| O=C(CCCNC(=O)[C@@H]1CC[C@@H]2CN1C(=O)N2OS(=O)(=O)O)NNC(=O)c1cn(C2CC2)c2cc(N3CCNCC3)c(F)cc2c1=O | > 64 | > 64 | > 64 | 8 (≈ 11.8 µM) | > 32 | > 32 | > 64 |  |  |  |  |  |  |
| CC(C)(C)OC(=O)N1CCN(c2cc3c(cc2F)c(=O)c(C(=O)NNC(=O)[C@@H]2CC[C@@H]4CN2C(=O)N4OS(=O)(=O)[O-])cn3C2CC2)CC1.CCCC[N+](CCCC)(CCCC)CCCC | 8 | > 128 | > 128 | > 256 | > 128 | > 128 | > 128 |  |  |  |  |  |  |
| CC(C)[C@H](NC(=O)[C@@H]1CC[C@@H]2CN1C(=O)N2OS(=O)(=O)O)C(=O)NNC(=O)c1cn(C2CC2)c2cc(N3CCNCC3)c(F)cc2c1=O | 128 (≈ 185 µM) | > 128 | > 128 | 16 (≈ 23.1 µM) | > 128 | > 128 | > 128 | 57.4 | 5.1 | Active | Active | Active | Active |
| O=C(NNC(=O)[C@@H]1CCCN1C(=O)[C@@H]1CC[C@@H]2CN1C(=O)N2OS(=O)(=O)O)c1cn(C2CC2)c2cc(N3CCNCC3)c(F)cc2c1=O | 128 (≈ 185 µM) | > 128 | > 128 | 8 (≈ 11.6 µM) | > 128 | > 128 | > 128 |  |  |  |  |  |  |
| O=C(O)c1cn(C2CC2)c2cc(N3CCNCC3)c(F)cc2c1=O [CIPROFLOXACIN] |  | > 128 | > 128 |  | 128 (≈ 386 µM) | > 128 | 0.5 (≈ 1.51 µM) |  |  |  |  |  |  |
